# US6433001B1, “1H-indole-3-glyoxylamide sPLA2 inhibitors” (Eli Lilly and Company, priority 1994, dated 2002)
# Counter-ions that a name gives are not always drawn. Like-named read-outs stand apart in the source and are kept apart here.
# Tests used:
# [1] = target: T1, Human Secreted Phospholipase A2 (Homo sapiens, UniProt P14555); assay: chromogenic assay for inhibitors of recombinant human secreted phospholipase A2; type: biochemical
# T1 sequence (P14555 21-144): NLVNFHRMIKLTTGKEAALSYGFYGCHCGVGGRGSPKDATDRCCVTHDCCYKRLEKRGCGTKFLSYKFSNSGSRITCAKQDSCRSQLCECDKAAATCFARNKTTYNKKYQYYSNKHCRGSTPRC
# Procedure: The following chromogenic assay procedure was used to identify and evaluate inhibitors of recombinant human secreted phospholipase A2. The assay described herein has been adapted for high volume screening using 96 well microtiter plates.
# Adjust pH to 4.5 with acetic acid
# DTNB—5,5′-dithiobis-2-nitrobenzoic acid
# RACEMIC DIHEPTANOYL THIO—PC
# racemic 1,2-bis(heptanoylthio)-1,2-dideoxy-sn-glycero-3-phosphorylcholine
# TRITON X-100™ prepare at 6.249 mg/ml in reaction buffer to equal […].
# A measured volume of racemic dipheptanoyl thio PC supplied in chloroform at a concentration of 100 mg/ml is taken to dryness and redissolved in 10 millimolar TRITON X-100™ nonionic detergent aqueous solution.
# Reaction Buffer is added to the solution, then DTNB to give the Reaction Mixture.
# The reaction mixture thus obtained contains 1 mM diheptanoly thio-PC substrate, 0.29 mm Triton X-100™ detergent, and 0.12 mm DTMB in a buffered aqueous solution at pH 7.5.
# 1. Add 0.2 ml reaction mixture to all wells;
# 2. Add 10 ul test compound (or solvent blank) to appropriate wells, mix 20 seconds;
# 3. Add 50 nanograms of sPLA2 (10 microliters) to appropriate wells;
# 4. Incubate plate at 40° C. for 30 minutes;
# 5. Read absorbance of wells at 405 nanometers with an automatic plate reader.
# All compounds were tested in triplicate. […] Lack of color development at 405 nanometers evidenced inhibition. […] In all cases, % inhibition measured at 405 nanometers generated by enzyme reactions containing inhibitors relative to the uninhibited control reactions was determined. Each sample was titrated in triplicate and result values were averaged for plotting and calculation of IC50 values.
# [2] = target: T1, Human Secreted Phospholipase A2; assay: guinea pig lung pleural strip tissue test, sPLA2-induced contraction; type: cell-based; details: guinea pig lung pleural strips; compound added 30 min. prior to sPLA2 concentration-response curves; pA2 interpreted as apparent KB; read-out: Tissue test secreted PLA2 Apparent KB
# Source text: Male Hartley strain guinea pigs (500-700 g) were killed by cervical dislocation and their heart and lungs removed intact and placed in aerated (95% O2:5% CO2) Krebs buffer. Dorsal pleural strips (4×1×25 mm) were dissected from intact parenchymal segments (8×4×25 mm) cut parallel to the outer edge of the lower lung lobes. Two adjacent pleural strips, obtained from a single lobe and representing a single tissue sample, were tied at either end and independently attached to a metal support rod. One rod was attached to a Grass force-displacement transducer (Model FTO3C, product of Grass Medical Instruments Co., Quincy, Mass., USA). […] All tissues were placed in 10 ml jacketed tissue baths maintained at 37° C. The tissue baths were continuously aerated and contained a modified Krebs solution of the following composition (millimolar) NaCl, 118.2; KCl, 4.6; CaCl2.2H2O, 2.5; MgSO4.7H2O, 1.2; NaHCO3, 24.8; KH2PO4, 1.0; and dextrose 10.0. Pleural strips from the opposite lobes of the lung were used for paired experiments. […] The tissues were allowed to equilibrate for 45 min. as the bath fluid was changed periodically.
# Initially tissues were challenged 3 times with KCl (40 mM) to test tissue viability and to obtain a consistent response. After recording the maximal response to KCl, the tissues were washed and allowed to return to baseline before the next challenge. Cumulative concentration-response curves were obtained from pleural strips by increasing the agonist concentration (sPLA2) in the tissue bath by half-log10 increments while the previous concentration remained in contact with the tissues (Ref.1, supra.) Agonist concentration was increased after reaching the plateau of the contraction elicited by the preceding concentration. One concentration-response curve was obtained from each tissue. To minimize variability between tissues obtained from different animals, contractile responses were expressed as a percentage of the maximal response obtained with the final KCl challenge. When studying the effects of various drugs on the contractile effects of sPLA2, the compounds and their respective vehicles were added to the tissues 30 min. prior to star ting the sPLA2 concentration-response curves.
# Data from different experiments were pooled and presented as a percentage of the maximal KCl responses (mean±S.E.). […] 163, (Ref.2) The model includes four parameters: the maximum tissue response which was assumed the same for each curve, the ED50 for the control curve, the steepness of the curves, and the pA2, the concentration of antagonist that requires a two-fold increase in agonist to achieve an equivalent response. […] 164 (Ref. 2).
# To estimate the drug-induced suppression of the maximal responses, siPLA2 responses (10 ug/ml) were determined in the absence and presence of drug, and percent suppression was calculated for each pair of tissues.
# [3] = diheptanoyl thio-PC substrate, pH 7.5, 40° C. for 30 minutes, absorbance at 405 nanometers, read-out: Inhibition of human secreted PLA2 IC50 ± mean deviation (3-4 tests)
SMILES,"IC50 [1, 3] [nM]",IC50 [1] [nM],further results
"CCCc1c(C(=O)C(N)=O)c2c(OCC(=O)O)cccc2n1Cc1ccccc1-c1ccccc1 [Example 12, [[3-(2-amino-1,2-dioxoethyl)-1-([1,1′-biphenyl]-2-ylmethyl)-2-propyl-1H-indol-4-yl]oxy]acetic Acid]",82.2 ± 18,–,–
"Cc1c(C(=O)C(N)=O)c2c(OCC(=O)O)cccc2n1Cc1ccc(F)cc1 [Example 7, [[3-(2-Amino-1,2-dioxoethyl)-1-[4(-fluorophenyl)methyl]-2-methyl-1H-indol-4-yl]oxy]acetic Acid]",–,6 ± 1,–
"Cc1c(C(=O)C(N)=O)c2c(OCC(=O)O)cccc2n1Cc1ccc(-c2ccccc2)cc1 [Example 5, [[3-(2-Amino-1,2-dioxoethyl)-1-([1,1′-biphenyl]-4-ylmethyl)-2-methyl-1H-indol-4-yl]oxy]acetic Acid]",–,49 ± 11.5,–
"CCc1c(C(=O)C(N)=O)c2c(OCC(=O)O)cccc2n1Cc1ccccc1-c1ccccc1 [Example 11, [[3-(2-Amino-1,2-dioxoethyl)-1-([1,1′-biphenyl]-2-ylmethyl)-2-ethyl-1H-indol-4-yl]oxy]acetic Acid]",–,4.33 ± 2.31,Kb [2]: 57 ± 11 nM
"NC(=O)C(=O)c1cn(Cc2ccccc2)c2ccc(OCCCC(=O)O)cc12 [Example 16, 4-[[3-(2-Amino-1,2-dioxoethyl)-1-(phenylmethyl)-H-indol-5-yl]oxy]butanoic Acid]",62000,–,activity in inhibiting sPLA2 (in words) ([1]; comment on Table I): much less active
"CCc1c(C(=O)C(N)=O)c2c(OCC(=O)O)cccc2n1Cc1cccc(Cl)c1 [Example 10, [[3-(2-Amino-1,2-dioxoethyl)-1-[(3-chlorophenyl)methyl]-2-ethyl-1H-indol-4-yl]oxy]acetic Acid]",–,6.67 ± 2.89,–
"NC(=O)C(=O)c1c(C2CC2)n(Cc2ccccc2)c2cccc(OCC(=O)O)c12 [Example 13, [[3-(2-Amino-1,2-dioxoethyl)-2-cyclopropyl-1-(phenylmethyl)-1H-indol-4-yl]oxy]acetic Acid]",–,27.6 ± 13.1,–
"Cc1c(C(=O)C(N)=O)c2c(OCC(=O)O)cccc2n1Cc1cccc(-c2ccccc2)c1 [Example 4, [[3-(2-Amino-1,2-dioxoethyl)-1-([1,1′-biphenyl]-3-ylmethyl)-2-methyl-1H-indol-4-yl]oxy]acetic Acid]",–,9.69 ± 1.14,–
"Cc1c(C(=O)C(N)=O)c2c(OC(C)C(=O)O)cccc2n1Cc1ccccc1 (racemic) [Example 2, dl-2-[[3-(2-Amino-1,2-dioxoethyl)-2-methyl-1-(phenylmethyl)-1H-indol-4-yl]oxy]propanoic Acid]",9 ± 1.73,–,–
"Cc1c(C(=O)C(N)=O)c2c(OCC(=O)O)cccc2n1Cc1ccccc1 [Example 1, [[3-(2-Amino-1,2-dioxoethyl)-2-methyl-1-(phenylmethyl)-1H-indol-4-yl]oxy]acetic Acid]",–,10.7 ± 5.51,Kb [2]: 143 ± 67 nM
CCc1c(C(=O)C(N)=O)c2cc(OCCCC(=O)O)ccc2n1Cc1ccccc1 [Example 15],210 ± 60,–,–
"Cc1c(C(=O)C(N)=O)c2c(OCC(=O)O)cccc2n1Cc1cccc2ccccc12 [Example 8, [[3-(2-Amino-1,2-dioxoethyl)-2-methyl-1-[(1-naphthalenyl)methyl]-1H-indol-4-yl]oxy]acetic Acid]",–,32.8 ± 7.04,–
"Cc1c(C(=O)C(N)=O)c2c(OCC(=O)O)cccc2n1Cc1ccccc1-c1ccccc1 [3 (Na salt), [[3-(2-amino-1,2-dioxoethyl)-1-([1,1′-biphenyl]-2-ylmethyl)-2-methyl-1H-indol-4-yl]oxy]acetic acid, sodium salt]",–,–,Kb [2]: 67.6 ± 11.8 nM
"CCc1c(C(=O)C(N)=O)c2c(NCC(=O)O)cccc2n1Cc1ccccc1 [Example 17, [[3-(Aminooxoacetyl)-2-ethyl-1-(phenylmethyl)-1H-indol-4-yl]amino]acetic Acid]",1150 ± 120,–,–
"CCc1c(C(=O)C(N)=O)c2c(OCC(=O)O)cccc2n1Cc1cccc(Cl)c1 [10 (Na salt), [[3-(2-amino-1,2-dioxoethyl)1-[(3-chlorophenyl)methyl]-2-ethyl-1H-indol-4-yl]oxy]acetic acid, sodium salt]",–,–,Kb [2]: 110 ± 10 nM
"Cc1c(C(=O)C(N)=O)c2c(OCC(=O)O)cccc2n1Cc1c(Cl)cccc1Cl [Example 6, [[3-(2-Amino-1,2-dioxoethyl)-1-[(2,6-dichlorophenyl)methyl]-2-methyl-1H-indol-4-yl]oxy]acetic Acid]",6 ± 1,–,–
"Cc1c(C(=O)C(N)=O)c2c(OCC(=O)O)cccc2n1Cc1ccccc1-c1ccccc1 [Example 3, [[3-(2-Amino-1,2-dioxoethyl)-1-([1,1′-biphenyl]-2-ylmethyl)-2-methyl-1H-indol-4-yl]oxy]acetic Acid]",–,5.33 ± 1.15,–
"NC(=O)C(=O)c1c(C2CC2)n(Cc2ccccc2-c2ccccc2)c2cccc(OCC(=O)O)c12 [Example 14, [[3-(2-Amino-1,2-dioxoethyl)-1-([1,1′-biphenyl]-2-ylmethyl)-2-cyclopropyl-1H-indol-4-yl]oxy]acetic Acid]",–,5.57 ± 2.89,Kb [2]: 75 ± 9 nM
